Patent US10800772B2 (Gilead Sciences, Inc., priority 2016, dated 2020)
Like-named read-outs stand apart in the source and are kept apart here.

Tests used:
HIV-IIIb IN T174I BT = assay: Antiviral assay in MT4 cells, HIV-IIIb IN T174I BT virus (from viral breakthrough); assay type: cell-based, HIV-1; details: Human immunodeficiency virus 1, IIIB, MT4, 120 h, read-out: T174I BT EC50, MT4 cells, HIV-IIIb IN T174I BT (viral breakthrough), 5 days, CellTiter-Glo
Outline: (§1)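 MT4 cells were pre-infected 3 h at 37 °C with HIV-IIIb (0.004 m.o.i.): wildtype, or IN T174I virus from breakthrough or from dose-escalation passaging. Cells (2000/well) were exposed to 10-point 3-fold compound dilutions in quadruplicate for 5 days at 37 °C. EC50 was the concentration giving 50% decrease in CellTiter-Glo luminescence.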

HIV-IIIb IN T174I DE = assay: Antiviral assay in MT4 cells, HIV-IIIb IN T174I DE virus (from dose escalation passaging); assay type: cell-based, HIV-1; details: Human immunodeficiency virus 1, IIIB, MT4, 120 h, read-out: T174I DE EC50, MT4 cells, HIV-IIIb IN T174I DE (dose escalation), 5 days, CellTiter-Glo
Outline: as §1

[1] = Hum MS stability (human microsomal stability half-life); details: human microsomes
HIV-IIIb (wildtype) = assay: Antiviral assay in MT4 cells, HIV-IIIb wildtype; assay type: cell-based, HIV-1; details: read-out: WT EC50
Outline: as §1

[2] = Human immunodeficiency virus 1, IIIB, MT4, 120 h

Row | Structure (SMILES) | EC50 (HIV-IIIb IN T174I BT) | EC50 (HIV-IIIb IN T174I DE) | half-life [1] | EC50 (HIV-IIIb (wildtype); [2]) | EC50 (HIV-IIIb (wildtype); Human immunodeficiency virus 1, 120 h, MT4 cells, HIV-IIIb wildtype, 5 days, CellTiter-Glo)
1 | Cc1cc2nc(-c3ccc4c(n3)c(C3CCN([C@H]5C[C@@H](O)C5)CC3)nn4C)sc2c(-c2ccc(Cl)cc2)c1[C@H](OC(C)(C)C)C(=O)O [Compound 188, (S)-2-(tert-butoxy)-2-(7-(4-chloro-phenyl)-2-(3-(1-((1s,3s)-3-hydroxy-cyclobutyl)piperidin-4-yl)-1-methyl-1H-pyrazolo[4,3-b]pyridin-5-yl)-5-methylbenzo[d]thiazol-6-yl) acetic acid] | 196 nM | 391 nM | 2.53 h | 11 nM | –
2 | COCC(COC)N1CC(c2nn(C)c3ccc(-c4nc5cc(C)c([C@H](OC(C)(C)C)C(=O)O)c(-c6ccc(Cl)cc6)c5s4)cc23)C1 [Compound 61, (S)-2-(tert-butoxy)-2-(7-(4-chlorophenyl)-2-(3-(1-(1,3-dimethoxypropan-2-yl)azetidin-3-yl)-1-methyl-1H-indazol-5-yl)-5-methylbenzo[d]thiazol-6-yl)acetic acid] | 1610 nM | 2700 nM | 3.62 h | 7 nM | –
3 | COCCN1CCC(c2nn(C)c3ccc(-c4nc5cc(C)c([C@H](OC(C)(C)C)C(=O)O)c(-c6ccc(Cl)cc6)c5s4)cc23)C1 (single isomer, unassigned) [Compound 69] | 972 nM | 1150 nM | 5.72 h | 5 nM | –
4 | CCOCCN1CCN(c2nn(C)c3ccc(-c4nc5cc(C)c([C@H](OC(C)(C)C)C(=O)O)c(-c6ccc(Cl)cc6)c5s4)cc23)CC1 [Compound 99, (S)-2-(tert-butoxy)-2-(7-(4-chlorophenyl)-2-(3-(4-(2-ethoxyethyl)piperazin-1-yl)-1-methyl-1H-indazol-5-yl)-5-methylbenzo[d]thiazol-6-yl)acetic Acid] | 485 nM | 759 nM | 4.33 h | 6 nM | –
5 | COCCN1C(=O)N(c2nn(C)c3ccc(-c4nc5cc(C)c([C@H](OC(C)(C)C)C(=O)O)c(-c6ccc(Cl)cc6)c5s4)cc23)CC1(C)C [Compound 123, (S)-2-(tert-butoxy)-2-(7-(4-chlorophenyl)-2-(3-(3-(2-methoxyethyl)-4,4-dimethyl-2-oxoimidazolidin-1-yl)-1-methyl-1H-indazol-5-yl)-5-methylbenzo[d]thiazol-6-yl)acetic acid] | 1450 nM | 7090 nM | 1.6 h | 11 nM | –
6 | Cc1cc2nc(-c3ccc4c(n3)c(N3CCN(C5COC5)CC3)nn4C)sc2c(-c2ccc(Cl)cc2)c1[C@H](OC(C)(C)C)C(=O)O [Compound 15, (S)-2-(tert-butoxy)-2-(7-(4-chlorophenyl)-5-methyl-2-(1-methyl-3-(4-(oxetan-3-yl)piperazin-1-yl)-1H-pyrazolo[4,3-b]pyridin-5-yl)benzo[d]thiazol-6-yl)acetic Acid] | 657 nM | 3070 nM | 2.83 h | 4 nM | –
7 | COCCOC1CN(c2nn(C)c3ccc(-c4nc5cc(C)c([C@H](OC(C)(C)C)C(=O)O)c(-c6ccc(Cl)cc6)c5s4)cc23)C1 [Compound 134, (S)-2-(tert-butoxy)-2-(7-(4-chloro-phenyl)-2-(3-(3-(2-methoxyethoxy)azetidin-1-yl)-1-methyl-1H-indazol-5-yl)-5-methylbenzo[d]thiazol-6-yl) acetic acid] | 1160 nM | 2240 nM | 1.48 h | 13 nM | –
8 | Cc1cc2nc(-c3ccc4c(c3)c(N3CC[C@@H](N(C)C)C3)nn4C)sc2c(-c2ccc(Cl)cc2)c1[C@H](OC(C)(C)C)C(=O)O [Compound 92, (S)-2-(tert-butoxy)-2-(7-(4-chlorophenyl)-2-(3-((R)-3-(dimethylamino)pyrrolidin-1-yl)-1-methyl-1H-indazol-5-yl)-5-methylbenzo[d]thiazol-6-yl)acetic acid] | 938 nM | 1940 nM | 6.05 h | 14 nM | –
9 | Cc1cc2nc(-c3ccc4c(c3)c(C3CCN(C5CC(O)C5)CC3)nn4C)sc2c(-c2ccc(Cl)cc2)c1[C@H](OC(C)(C)C)C(=O)O (stereo partly drawn) [Compound 156, (S)-2-(tert-butoxy)-2-(7-(4-chloro-phenyl)-2-(3-(1-((1s,3s)-3-hydroxy-cyclobutyl)piperidin-4-yl)-1-methyl-1H-indazol-5-yl)-5-methylbenzo[d]thiazol-6-yl) acetic acid] | 126 nM | 197 nM | 4.95 h | 11 nM | –
10 | Cc1cc2nc(-c3ccc4c(n3)c(C3CCN(C5CN(C)C5)CC3)nn4C)sc2c(-c2ccc(Cl)cc2)c1[C@H](OC(C)(C)C)C(=O)O [Compound 184, (S)-2-(tert-butoxy)-2-(7-(4-chloro-phenyl)-5-methyl-2-(1-methyl-3-(1-(1-methylazetidin-3-yl)piperidin-4-yl)-1H-pyrazolo [4,3-b]pyridin-5-yl)benzo[d]thiazol-6-yl) acetic acid] | 103 nM | 218 nM | 0.767 h | 4 nM | –
11 | [2H]C([2H])([2H])C(O[C@H](C(=O)O)c1c(C)cc2nc(-c3ccc4c(c3)c(C3CCN(C5COC5)CC3)nn4C)sc2c1-c1ccc(Cl)cc1)(C([2H])([2H])[2H])C([2H])([2H])[2H] [Compound 21, (S)-2-(7-(4-chlorophenyl)-5-methyl-2-(1-methyl-3-(1-(oxetan-3-yl)piperidin-4-yl)-1H-indazol-5-yl)benzo[d]thiazol-6-yl)-2-((2-(methyl-d3)propan-2-yl-1,1,1,3,3,3-d6)oxy)acetic Acid] | 124 nM | 239 nM | 3.3 h | – | 4 nM
12 | COC1CN(c2nn(C)c3ccc(-c4nc5cc(C)c([C@H](OC(C)(C)C)C(=O)O)c(-c6ccc(Cl)cc6)c5s4)cc23)C1 [Compound 2, (S)-2-(tert-butoxy)-2-(7-(4-chlorophenyl)-2-(3-(3-methoxyazetidin-1-yl)-1-methyl-1H-indazol-5-yl)-5-methylbenzo[d]thiazol-6-yl)acetic Acid] | 1020 nM | 2580 nM | 1.82 h | 7 nM | –
13 | CC(=O)N1CCC(c2nn(C)c3ccc(-c4nc5cc(C)c([C@H](OC(C)(C)C)C(=O)O)c(-c6ccc(Cl)cc6)c5s4)cc23)C1 (stereo partly drawn) [Compound 74, (2S)-2-(2-(3-(1-acetylpyrrolidin-3-yl)-1-methyl-1H-indazol-5-yl)-7-(4-chlorophenyl)-5-methylbenzo[d]thiazol-6-yl)-2-(tert-butoxy)acetic acid] | 349 nM | 587 nM | 3.32 h | 10 nM | –
14 | COCCN1CCC(c2nn(C)c3ccc(-c4nc5cc(C)c([C@H](OC(C)(C)C)C(=O)O)c(-c6ccc(Cl)cc6)c5s4)cc23)CC1 [Compound 125, (S)-2-(tert-butoxy)-2-(7-(4-chloro-phenyl)-2-(3-(1-(2-methoxyethyl)piperidin-4-yl)-1-methyl-1H-indazol-5-yl)-5-methylbenzo[d]thiazol-6-yl) acetic acid] | 400 nM | 715 nM | 4.38 h | 8 nM | –
15 | Cc1cc2nc(-c3ccc4c(c3)c(C3CCN(S(C)(=O)=O)CC3)nn4C)sc2c(-c2ccc(Cl)cc2)c1[C@H](OC(C)(C)C)C(=O)O [Compound 25, (S)-2-(tert-butoxy)-2-(7-(4-chlorophenyl)-5-methyl-2-(1-methyl-3-(1-(methylsulfonyl)piperidin-4-yl)-1H-indazol-5-yl)benzo[d]thiazol-6-yl)acetic acid] | 404 nM | 806 nM | 4.25 h | 10 nM | –
